≈ marks a conversion by molar mass, not a printed value. Like-named read-outs stand apart in the source and are kept apart here. *1 amine or outer side, *2 acyl side, *3 side chain or, on linkers, in order; H or OH if unused. Where a SMILES comes first, the peptide text is derived from it. Side-chain parts run from the residue outwards. [ ]: non-standard residue; d: D form. The star is where a group is joined. X2 = CCCCCCCCCCCCCCCCCC(=O)N[C@@H](CCC(=O)N[C@@H](CCC(=O)N[C@@H](CCC(=O)NCCCC[C@H](NC(=O)COCC(=O)NCCCOCCOCCOCCCNC(=O)COCC(=O)NCCCOCCOCCOCCCNC(=O)COCC(=O)NCCCOCCOCCOCCCN*)C(N)=O)C(=O)O)C(=O)O)C(=O)O; PEG12 = NCCOCCOCCOCCOCCOCCOCCOCCOCCOCCOCCOCCOCCC(=O)O; γGlu = O=C(O)[C@H](CCC(=O)[*:2])N[*:1]; Stearoyl = CCCCCCCCCCCCCCCCCC(=O)*; Palmitoyl = CCCCCCCCCCCCCCCC(=O)*; Nle = CCCC[C@H](N)C(=O)O; AEEA = NCCOCCOCC(=O)O; Aib = CC(C)(N)C(=O)O
What was measured:
RXFP1 = target: T1, RXFP1 (Homo sapiens, UniProt Q9HBX9); experiment: OVCAR5 cAMP assay (HTRF), RXFP1 agonist activity; format: cell-based; details: for Emax: OVCAR-5, maximal cAMP relative to H2-relaxin maximum (100%), read-out: EMax, OVCAR 5 cells (cAMP)
T1 construct: OVCAR5 cells expressing endogenous RXFP1; endogenous in cells; host or cells: OVCAR5 cells
T1 sequence (Q9HBX9 1-757): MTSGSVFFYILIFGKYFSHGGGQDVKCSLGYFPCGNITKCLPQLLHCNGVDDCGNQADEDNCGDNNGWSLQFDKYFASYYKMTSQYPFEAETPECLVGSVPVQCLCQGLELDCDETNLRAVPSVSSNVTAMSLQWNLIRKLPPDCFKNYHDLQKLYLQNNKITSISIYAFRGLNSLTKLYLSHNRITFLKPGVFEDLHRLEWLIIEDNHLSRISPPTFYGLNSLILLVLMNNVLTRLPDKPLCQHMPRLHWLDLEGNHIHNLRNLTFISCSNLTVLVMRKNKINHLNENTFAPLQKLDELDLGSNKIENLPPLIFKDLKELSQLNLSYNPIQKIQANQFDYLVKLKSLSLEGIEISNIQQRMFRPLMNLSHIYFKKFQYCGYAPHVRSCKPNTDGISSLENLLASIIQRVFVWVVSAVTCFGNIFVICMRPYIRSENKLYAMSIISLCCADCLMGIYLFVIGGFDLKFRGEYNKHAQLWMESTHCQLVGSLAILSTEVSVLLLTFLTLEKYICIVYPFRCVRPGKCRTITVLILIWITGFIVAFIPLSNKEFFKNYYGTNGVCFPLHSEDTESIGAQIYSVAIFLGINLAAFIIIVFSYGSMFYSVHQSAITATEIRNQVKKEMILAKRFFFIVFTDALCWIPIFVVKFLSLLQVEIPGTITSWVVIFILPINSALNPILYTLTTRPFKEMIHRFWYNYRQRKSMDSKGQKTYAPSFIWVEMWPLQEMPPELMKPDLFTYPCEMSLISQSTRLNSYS
How it was run: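 OVCAR5 cells (endogenous RXFP1) pretreated 40 min at 37° C with 1 mM IBMX, then exposed to peptides in serum-free medium for 30 min at 37° C. Lysate cAMP read by HTRF; EC50 from variable-slope sigmoidal fit; Emax as % of H2-relaxin maximal cAMP in same run.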

[1] = Pharmacokinetic (PK) determination after i.v. or s.c. administration to rats; format: in vivo, Sprague Dawley rats; details: Sprague Dawley, Rat PK; for C0 / half-life: iv, 1 mg/kg i.v.; for C0: extrapolated plasma concentration at t=0, read-out: C0; for half-life / Cmax / Tmax / bioavailability: plasma; for half-life: read-out: T½ (converted); for Cmax / Tmax: sc, 3 mg/kg s.c.; for bioavailability: subcutaneous, 3 mg/kg s.c. vs 1 mg/kg i.v., dose-corrected AUC ratio
How it was run: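 Sprague Dawley rats received peptide in PBS at 1 mg/kg i.v. or 3 mg/kg s.c., dose corrected for salts, solvent and purity. Plasma analysed by LC/MS after protein precipitation; non-compartmental PK, BLQ values set to zero, F% as dose-corrected s.c./i.v. AUC ratio.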

[2] = Solubility testing of peptides in buffer; format: physicochemical
Experimental: Prior to the testing of solubility of a peptide batch, its purity (HPLC-UV) was determined.
Acetate Buffer 50 mM pH4.5: 0.75 g […], 3H2O (Sigma 57545)+0.35 ml CH3CO2H 100% solution dissolved in Millipore water, adjusted to pH with diluted (1:1) CH3CO2H and diluted to 250 ml with Millipore water.
In a 4 ml Ependorph vial, an accurately weighed sample of compound was diluted in study media to obtain target concentration of 2, 6 or 10 mg/ml of pure compound. The sample vials were shacked (rock 'roll shaker) for ˜19 h. 3004, Aliquots ( ) were filtered through a Millipore “Solvinert” plate (0.45 μm—PTFE hydrophilic).
pH was measured with a micro electrode
Waters Acquity UPLC System with DAD detector
Column: Waters Peptide Column CSH C18 (130 Å; 1.7 μm; 50*2.1 mm)
Column temperature: 60° C.
Full loop (about 5 μL)—overfill factor 5
Weak et Strong wash: H2O/ACN (75/25; V/V); Seal wash: H2O/IsOH (95/5; V/V). Mobile phase:
Solvent A: 0.05% TFA in H2O; Solvent B: 0.035% TFA in CH3CN
Gradient: from 0 to 12 min B=2% to 60%, from 12 to 14 min B=60% to 100%. Column washing 100% B 1 min, column equilibration 2% B 2.5 min.
UV detector: wavelength: 220 nm.

[3] = acetate buffer, pH 4.5, read-out: Solubility Acetate buffer pH 4.5
[4] = phosphate buffer, pH 7.4, read-out: Solubility phosphate buffer pH 7.4

| Emax (RXFP1) | C0 [1] | half-life [1] | Cmax [1] | Tmax [1] | bioavailability [1] | solubility [2, 3] | solubility [2, 4] | EC50 (RXFP1; OVCAR5 cells, cAMP HTRF, read-out: EC50 (nM), OVCAR 5 cells (cAMP)) | solubility ([2]; phosphate buffer 50 mM pH 7.4, target solubility 2.0 mg/ml, read-out: Solubility phosphate buffer pH 7.4) | SMILES |
| --- | --- | --- | --- | --- | --- | --- | --- | --- | --- | --- |
| 89% | 2900 nM | 8.96 h | 1700 nM | 6 h | 84% | 7000 µg/mL (≈ 1740 µM) | 7000 µg/mL (≈ 1740 µM) | – | – | CCCCCCCCCCCCCCCC(=O)N[C@@H](CCC(=O)N[C@@H](CCC(=O)N[C@@H](CCC(=O)NCCCC[C@H](NC(=O)CCOCCOCCOCCOCCOCCOCCOCCOCCOCCOCCOCCOCCNC(=O)[C@H](CCCCN)NC(=O)[C@H](CCCNC(=N)N)NC(=O)C(C)(C)NC(=O)[C@H](CO)NC(=O)[C@H](Cc1c[nH]c2ccccc12)NC(=O)[C@@H](NC(=O)[C@H](CO)NC(=O)[C@H](CCSC)NC(=O)CNC(=O)[C@H](CCC(=O)O)NC(=O)C(C)(C)NC(=O)C(C)(C)NC(=O)[C@@H](NC(=O)[C@H](CCC(N)=O)NC(=O)[C@H](C)NC(=O)[C@H](CCCNC(=N)N)NC(=O)[C@@H](NC(=O)[C@H](CCCCN)NC(=O)[C@H](CCC(=O)O)NC(=O)[C@H](CCCNC(=N)N)NC(=O)CNC(=O)[C@H](CCC(=O)O)NC(=O)[C@H](CC(C)C)NC(C)=O)C(C)C)[C@@H](C)CC)[C@@H](C)O)C(N)=O)C(=O)O)C(=O)O)C(=O)O [compound 23] (Ac-LEGREKVRAQI[Aib][Aib]EGMSTWS[Aib]RK[PEG12]K([γGlu-γGlu-γGlu-Palmitoyl])-NH2) |
| 88% | 4000 nM | 3.96 h | 3000 nM | 8 h | 73% | 5600 µg/mL (≈ 1220 µM) | 5600 µg/mL (≈ 1220 µM) | – | – | CCCCCCCCCCCCCCCCCC(=O)N[C@@H](CCC(=O)N[C@@H](CCC(=O)N[C@@H](CCC(=O)NCCCC[C@H](NC(=O)COCC(=O)NCCCOCCOCCOCCCNC(=O)COCC(=O)NCCCOCCOCCOCCCNC(=O)COCC(=O)NCCCOCCOCCOCCCNC(=O)[C@H](CCCCNC(C)=O)NC(=O)[C@H](CCCCN)NC(=O)[C@H](CCCNC(=N)N)NC(=O)C(C)(C)NC(=O)[C@H](CO)NC(=O)[C@H](Cc1c[nH]c2ccccc12)NC(=O)[C@@H](NC(=O)[C@H](CO)NC(=O)[C@H](CCCC)NC(=O)CNC(=O)[C@H](CCC(=O)O)NC(=O)C(C)(C)NC(=O)C(C)(C)NC(=O)[C@@H](NC(=O)[C@H](CCCCNC(C)=O)NC(=O)[C@H](C)NC(=O)[C@H](CCCNC(=N)N)NC(=O)[C@@H](NC(=O)[C@H](CCCCN)NC(=O)[C@H](CCC(=O)O)NC(=O)[C@H](CCCNC(=N)N)NC(=O)CNC(=O)[C@H](CCC(=O)O)NC(=O)[C@H](CC(C)C)NC(C)=O)C(C)C)[C@@H](C)CC)[C@@H](C)O)C(N)=O)C(=O)O)C(=O)O)C(=O)O [compound 20] (Ac-LEGREKVRAK(Ac)I[Aib][Aib]EG[Nle]STWS[Aib]RKK(Ac)-X2) |
| 89% | 2200 nM | 4.8 h | 600 nM | 4 h | 105% | 7000 µg/mL (≈ 1740 µM) | 7000 µg/mL (≈ 1740 µM) | – | – | CCCCCCCCCCCCCCCCCC(=O)N[C@@H](CCC(=O)N[C@@H](CCC(=O)N[C@@H](CCC(=O)NCCCC[C@H](NC(=O)CCOCCOCCOCCOCCOCCOCCOCCOCCOCCOCCOCCOCCNC(=O)[C@H](CCCCN)NC(=O)[C@H](CCCNC(=N)N)NC(=O)C(C)(C)NC(=O)[C@H](CO)NC(=O)[C@H](Cc1c[nH]c2ccccc12)NC(=O)[C@@H](NC(=O)[C@H](CO)NC(=O)[C@H](CCCC)NC(=O)CNC(=O)[C@H](CCC(=O)O)NC(=O)C(C)(C)NC(=O)C(C)(C)NC(=O)[C@@H](NC(=O)[C@H](CCC(N)=O)NC(=O)[C@H](C)NC(=O)[C@H](CCCNC(=N)N)NC(=O)[C@@H](NC(=O)[C@H](CCCCN)NC(=O)[C@H](CCC(=O)O)NC(=O)[C@H](CCCNC(=N)N)NC(=O)CNC(=O)[C@H](CCC(=O)O)NC(=O)[C@H](CC(C)C)NC(C)=O)C(C)C)[C@@H](C)CC)[C@@H](C)O)C(N)=O)C(=O)O)C(=O)O)C(=O)O [compound 30] (Ac-LEGREKVRAQI[Aib][Aib]EG[Nle]STWS[Aib]RK[PEG12]K([γGlu-γGlu-γGlu-Stearoyl])-NH2) |
| 88% | 4000 nM | 3.4 h | 1500 nM | 6 h | 93% | – | – | 0.04 nM | > 2100 µg/mL | CCCCCCCCCCCCCCCCCC(=O)N[C@@H](CCC(=O)N[C@@H](CCC(=O)N[C@@H](CCC(=O)NCCCC[C@H](NC(=O)COCCOCCNC(=O)COCCOCCNC(=O)COCCOCCNC(=O)[C@H](CCCCNC(C)=O)NC(=O)[C@H](CCCCN)NC(=O)[C@H](CCCNC(=N)N)NC(=O)C(C)(C)NC(=O)[C@H](CO)NC(=O)[C@H](Cc1c[nH]c2ccccc12)NC(=O)[C@@H](NC(=O)[C@H](CO)NC(=O)[C@H](CCCC)NC(=O)CNC(=O)[C@H](CCC(=O)O)NC(=O)C(C)(C)NC(=O)C(C)(C)NC(=O)[C@@H](NC(=O)[C@H](CCCCNC(C)=O)NC(=O)[C@H](C)NC(=O)[C@H](CCCNC(=N)N)NC(=O)[C@@H](NC(=O)[C@H](CCCCN)NC(=O)[C@H](CCC(=O)O)NC(=O)[C@H](CCCNC(=N)N)NC(=O)CNC(=O)[C@H](CCC(=O)O)NC(=O)[C@H](CC(C)C)NC(C)=O)C(C)C)[C@@H](C)CC)[C@@H](C)O)C(N)=O)C(=O)O)C(=O)O)C(=O)O [compound 14] (Ac-LEGREKVRAK(Ac)I[Aib][Aib]EG[Nle]STWS[Aib]RKK(Ac)[AEEA][AEEA][AEEA]K([γGlu-γGlu-γGlu-Stearoyl])-NH2) |

Reference: patent publication US10988523B2, “Modified lipidated Relaxin B chain peptides and their therapeutic use” (Sanofi, priority 2018, dated 2021)
